System: EpiDerm™ Skin Model
Experiment: Skin Irritancy Potential Test via in vitro skin equivalents (IL-1α release)
Format: cell-based, human
Conditions: Table 12; vs C30
Excerpt: The EpiDerm™ Skin Model provided by MatTek Corporation was used in this study. The target cells are epithelial, derived from human skin. The test materials are applied directly to the culture surface, at air interface, so that undiluted and/or end use dilutions can be tested directly.
The experimental design used in this study consisted of a definitive assay to determine the release of one cytokine. Where tissue viability is not decreased by 50% as compared to the negative control tissue (as measured by MTT reduction), the inflammatory potential is then measured by the synthesis/release of the cytokine IL-1α.
In the treatment phase six skin equivalents are used for each diluted test product, individual results are averaged to provide overall response. 100 μl is applied to each equivalent for 1 hour of diluted product (10% dilution) exposure followed by 5 rinses of Ca, Mg Free PBS solution. Each Tissue is placed in a 6 well tray with assay medium for each rinse and returned to incubation for 24 hours. Following incubation tissues are assessed for cytokine responses of IL-1α.

Row | Substance | effect of PGE on mildness of the surfactant system
1 | Polyglycerol-10-Myristate [PG-10-M] | improve the mildness
2 | Polyglycerol-10-Oleate [PG-10-O] | improve the mildness
